Laboratory results: patent US20140283583A1, “SYSTEM FOR PIPELINE DRYING AND FREEZING POINT SUPPRESSION” (WEATHERFORD/LAMB, INC., priority 2007, published 2014)

Key:
[1] = 50% w/w solution in water
[2] = FIG. 1, compared with methanol and ethylene glycol
Mysidopsis bahia = settings: 800 mg/L
Menidia beryllina = settings: 800 mg/L

In the case of `O=C[O-].[K+]` [potassium formate], the freezing point [1] is reported as “around −60 °C”, the methane hydrate suppression [2] is reported as “between ethylene glycol and methanol” and the “larval survival and growth toxicity testing (normality tests)” value (Mysidopsis bahia) is reported as “passed the normality tests”. The “larval survival and growth toxicity testing (normality tests)” value (Menidia beryllina) was “passed the normality tests”.
